Source: patent publication EP2742937A1, “Compositions for use in the treatment of bacterial infections” (LIONEX Diagnostics and Therapeutics GmbH, priority 2012, dated 2014)
In brackets after ≈: the same amount, converted by molar mass. Where two headings read alike, the source gives them in different places.

How the values were obtained:
M. tuberculosis H37Rv = assay: Resazurin microtiter assay (REMA), MIC; type: cell-based; conditions: for MIC: Mycobacterium tuberculosis; for synergistic effect with ethambutol: in words
L929 cell line = assay: MTT cell proliferation assay (in vitro toxicity); type: cell-based, mouse; conditions: for IC50: Mus musculus, L929, 120 h
M. bovis BCG = assay: microbe, parasite or virus in culture; type: cell-based, Mycobacterium bovis BCG; conditions: for MIC With medium containing 50 % FBS / MIC in 100% medium: M. bovis BCG, resazurin assay; for MIC With medium containing 50 % FBS: 50 % fetal bovine serum; for MIC in 100% medium: no FBS; for MIC: Mycobacterium tuberculosis variant bovis BCG, BCG, read-out: MIC With medium containing 50 % FBS
[1] = in words; Haebich & Von Nussbaum, 2009; cited from earlier work
[2] = H37RV, read-out: MIC (µg/ml) against M. tuberculosis H37Rv With medium containing ethambutol
[3] = H37RV, REMA, individual substance, read-out: MIC (µg/ml) against M. tuberculosis H37Rv Individual substance
[4] = MTT assay after 5 days, individual substances, read-out: In vitro toxicity with L929 cell line IC50
[5] = MTT assay after 5 days, individual substances

SMILES | MIC (M. tuberculosis H37Rv; [2]) [µg/mL] | MIC (M. tuberculosis H37Rv; [3]) [µg/mL] | MIC (µg/ml) against M. tuberculosis H37Rv Individual substance (M. tuberculosis H37Rv; REMA, individual substance) | MIC (µg/ml) against M. tuberculosis H37Rv Individual substance (M. tuberculosis H37Rv; REMA, individual substance, listed as ripostatin) [µg/mL] | synergistic effect with ethambutol (M. tuberculosis H37Rv) | IC50 (L929 cell line; [4]) [µg/mL] | MIC With medium containing 50 % FBS (M. bovis BCG) | MIC in 100% medium (M. bovis BCG) | MIC (M. bovis BCG) [µg/mL] | FIC (M. tuberculosis H37Rv; H37RV) | MIC (µg/ml) against M. tuberculosis H37Rv Individual substance (M. tuberculosis H37Rv; H37RV) [µg/mL] | MIC (M. tuberculosis H37Rv; H37RV, read-out: MIC (µg/ml) against M. tuberculosis H37Rv Individual substance) [µg/mL] | In vitro toxicity with L929 cell line IC50 (µg/ml) (L929 cell line; [5]) | IC50 (L929 cell line; read-out: In vitro toxicity with L929 cell line IC50 (µg/ml)) [µg/mL] | serum protein binding [1] | MIC (µg/ml) against M. tuberculosis H37Rv With medium containing ethambutol (M. tuberculosis H37Rv; REMA, Ethambutol at Conc. 0.3 µg/ml in medium) [µg/mL] | In vitro toxicity with L929 cell line IC50 (L929 cell line; [5]) [µg/mL]
C/C(=C\Cc1ccccc1)CCC(=O)C[C@H]1C[C@H](O)C/C(C)=C/C/C=C/C/C(CC(=O)O)=C\C(=O)O1 [Ripostatin] | > 25 | > 25 | no inhibition up to 25 µg/ml | > 25 | did not show synergism with ethambutol | > 100 |  |  |  |  |  |  |  |  |  |  | 
CC[C@@H](CO)NCCN[C@@H](CC)CO [Ethambutol] |  | 1.6 (≈ 7.83 µM) |  |  |  | > 100 | not affected by the addition of the FBS | 2.5 | 2.5 (≈ 12.2 µM) |  |  |  |  |  |  |  | 
CCCC(C)=CC=C(C)C(=O)c1c(O)cc(C(C)CCC=CNC(=O)OC)oc1=O (stereo not drawn) [Myxopyronin A] | 3.12 (≈ 7.48 µM) |  |  |  | synergistic effect |  | did not inhibit the growth of M. bovis BCG | 6.25 | > 25 | 0.64 | 6.25 (≈ 15 µM) | 6.25 (≈ 15 µM) | did not inhibit L929 cell proliferation at all tested concentrations | > 100 | high serum protein binding |  | 
C/C=C/C/C=C(\C)C(O)CC/C(C)=C/C=C(\C)C(=O)c1c(O)cc([C@H](C)CC/C=C/NC(=O)OC)oc1=O (stereo partly drawn) [Corallopyronin] |  |  | 12.5 µg/mL (≈ 23.7 µM) |  | did not show synergism with ethambutol |  |  |  |  |  |  |  |  |  | high serum protein binding | 12.5 (≈ 23.7 µM) | 25
